Here are results for 18 molecules from BindingDB's records for doi:10.7270/Q2DV1H9K (University of Pittsburgh, 2008).

A value given as a limit tells only on which side of the number the result lay.

Chain of Cyclin-dependent kinase 7 (P50613 whole entry): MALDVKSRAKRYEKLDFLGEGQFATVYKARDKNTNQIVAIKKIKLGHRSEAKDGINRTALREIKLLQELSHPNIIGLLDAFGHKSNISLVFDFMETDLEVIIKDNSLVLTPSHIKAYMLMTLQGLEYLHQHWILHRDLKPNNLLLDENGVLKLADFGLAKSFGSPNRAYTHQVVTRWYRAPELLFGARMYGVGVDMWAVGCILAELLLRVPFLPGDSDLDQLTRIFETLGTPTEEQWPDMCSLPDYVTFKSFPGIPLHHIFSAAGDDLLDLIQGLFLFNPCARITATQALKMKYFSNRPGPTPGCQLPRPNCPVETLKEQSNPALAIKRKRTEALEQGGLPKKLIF

The assay addresses Cyclin-dependent kinase 7 (Homo sapiens, UniProt P50613). The assay is described as follows: off-target CDK7 activity blockade – biochemical, 57K library addition, counter-screen for PKD inhibitor project, dose response (AID 1380). (The purpose of a counterscreen is to sort out artefacts and off-target activity.)
Broadly, the IC50 is the midpoint of a concentration-inhibition curve. High values mean a need for much substance, low ones inhibition by little substance. `CSc1ccccc1C(=O)NCc1ccc(F)cc1` gave an IC50 of more than 100 µM. With `O=C(CSc1ccc2nnc(-c3cccnc3)n2n1)c1ccccc1` [1-phenyl-2-[[3-(3-pyridinyl)-[1,2,4]triazolo[4,3-b]pyridazin-6-yl]thio]ethanone] the figure was more than 100 µM; with `CCOC(=O)c1sc(=NC(=O)CCS(=O)(=O)c2ccccc2)n(C)c1C` [2-[3-(benzenesulfonyl)-1-oxopropyl]imino-3,4-dimethyl-5-thiazolecarboxylic acid ethyl ester], more than 100 µM. `CCCc1cc(=O)[nH]c(SCCCCN2C(=O)c3ccccc3C2=O)n1` [2-[4-[(4-oxidanylidene-6-propyl-1H-pyrimidin-2-yl)sulfanyl]butyl]isoindole-1,3-dione] returned an IC50 of more than 100 µM.

Turning to `Cc1c(C#N)c(N)nc(Cl)c1C#N` [2-amino-6-chloro-4-methyl-3,5-pyridinedicarbonitrile], the IC50 was more than 100 µM. The molecule `CC(N=Nc1ncc(Cl)cc1Cl)c1ccccn1` (stereo not drawn) [3,5-dichloro-N-(1-pyridin-2-ylethylideneamino)pyridin-2-amine] displayed an IC50 of more than 100 µM. `O=C1CSCN1c1cc(Cl)ccc1Cl` [3-(2,5-dichlorophenyl)-1,3-thiazolan-4-one] showed an IC50 of more than 100 µM. As for `O=C(O)c1cc(C(=O)C2CCCCC2)c[nH]1` [4-(cyclohexylcarbonyl)-1H-pyrrole-2-carboxylic acid], the IC50 is more than 100 µM. Regarding `CC1Cc2ccccc2N1c1ncnc(N)c1[N+](=O)[O-]` (stereo not drawn) [6-(2-methyl-2,3-dihydro-1H-indol-1-yl)-5-nitro-4-pyrimidinamine], the half-maximal inhibitory concentration (IC50) came to 8.22 µM. For the molecule `O=[N+]([O-])c1ccc(Nc2c3ccccc3nc3ccccc23)cc1` [MLS000723809], the IC50 is more than 100 µM.

`COc1ccc(Cn2c(=O)[nH]c3cc(C(=O)NC4CCCC4)ccc3c2=O)cc1` [MLS000730065] showed an IC50 of more than 100 µM. Molecule `Cc1cc(NC(=O)CCC(=O)N(Cc2ccco2)C(C(=O)NCC2CCCO2)c2ccncc2)no1` (stereo not drawn) [N'-(furan-2-ylmethyl)-N-(5-methyl-1,2-oxazol-3-yl)-N'-[2-oxidanylidene-2-(oxolan-2-ylmethylamino)-1-pyridin-4-yl-ethyl]butanediamide] had an IC50 of more than 100 µM. For `O=C(CSc1ccncc1)Nc1ccc2ccccc2c1` [N-naphthalen-2-yl-2-pyridin-4-ylsulfanylacetamide] the value was more than 100 µM; for `O=C(NNC1=Nc2cccc3cccc1c23)c1ccc(Br)cc1` [SMR000260645], more than 100 µM. For `O=C(Nc1ccccc1C(=O)N1CCCC1)C1COc2ccccc2O1` (stereo not drawn) [SMR000287780], the IC50 is more than 100 µM. For `COC(=O)c1c(NC(=O)C2C3CCC(C3)C2C(=O)O)sc2c1CCCCC2` (stereo not drawn) [SMR000298221] the value was more than 100 µM. For `COc1ccc(CNC(=O)C2Cc3ccccc3CN2C(=O)c2ccco2)cc1` (stereo not drawn) [SMR000343177] the value was more than 100 µM; for `Cn1cccc1C(=O)NC(=O)COC(=O)c1cc(S(=O)(=O)N2CCCCC2)ccc1Cl` [[2-[(1-methylpyrrol-2-yl)carbonylamino]-2-oxidanylidene-ethyl] 2-chloranyl-5-piperidin-1-ylsulfonyl-benzoate], more than 100 µM.
